The source of these data is patent US8324173B2, “Peptides useful as dual caspase-2/-6 inhibitors and their biological applications” (Chiesi Farmaceutici S.p.A., priority 2004, dated 2012).

Peptide text beside a SMILES is read from it. * marks the point of attachment. code Z = not defined here; CH2F = FC*

What is called IC50 is the concentration that gives 50% inhibition.

Assay [1] concerns the target T1, human recombinant caspase-2 (Homo sapiens, UniProt P42575).
T1 construct: purchased BIOMOL
T1 sequence (P42575 170-333 limits assumed): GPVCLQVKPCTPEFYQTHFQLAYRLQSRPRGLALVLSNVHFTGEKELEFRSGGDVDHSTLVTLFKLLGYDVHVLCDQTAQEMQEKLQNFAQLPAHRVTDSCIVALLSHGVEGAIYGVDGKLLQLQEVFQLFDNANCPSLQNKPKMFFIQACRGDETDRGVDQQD
T1 sequence (P42575 348-452 limits assumed): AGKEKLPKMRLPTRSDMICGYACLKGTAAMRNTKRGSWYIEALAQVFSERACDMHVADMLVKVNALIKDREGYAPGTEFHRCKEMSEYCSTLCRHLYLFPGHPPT
The experiment in a line: In vitro caspase-2 cleavage assay (Ac-VDVAD-AMC substrate). The assay is classed as biochemical. The arrangement: key to Group (pattern of caspase-2 inhibition curve): group 1 referred to inhibitors that were relatively more active than VDVAD(SEQ ID NO:9)-based inhibitors against caspase-2 at lower doses, but with similar IC50 values; group 2 referred to VDVAD(SEQ ID NO:9)-based inhibitor with characteristic sigmoid dose-response; group 3 referred to pentapetidic-based inhibitors that were less active than VDVAD(SEQ ID NO:9)-based inhibitors against caspase-2 at lower doses and that exhibited higher IC50. The note with it: for Group (pattern of caspase-2 inhibition curve) / IC50: Table 4; for IC50: 30 min pre-incubation, 2 h at 37° C.; for VDVAD-AMC cleavage by caspase-2: recombinant caspase-2, FIG. 16. On the procedure: Newly designed inhibitors (Ac-LDEAD(SEQ ID NO:7)-CHO, Ac-VDEAD(SEQ ID NO:1)-CHO . . . ) were compared to Ac-VDVAD(SEQ ID NO:9)-CHO in in vitro caspase-2 cleavage assay according to the following protocol (FIG. 8). Human recombinant caspases (25-50 U; QuantiZyme™ Assay System, BIOMOL, Plymouth, Pa., USA) were pre-incubated 30 min with inhibitors (0.005-2 μM) in final 100 μl final assay buffer (50 mM HEPES, pH 7.4, 100 mM NaCl, 0.1% CHAPS, 10 mM DTT, 1 mM EDTA, 10% glycerol) and then mixed with 200 μM of the fluorogenic caspase substrates (BIOMOL) Ac-VDVAD(SEQ ID NO:9)-AMC. An IC50 value corresponding to the concentration that could inhibit 50% of caspase activity was determined from the dose-response sigmoid curve. The cleavage of AMC-based substrates by human recombinant caspases 1-10 was measured after 2 h at 37° C. on a fluorescence microplate reader by monitoring emission at 510 nm upon excitation at 405 nm.

Assay [2] relates to neonatal ischemic brain injury. The experiment in a line: Perinatal transient unilateral focal ischemia model in 7 day-old rat pups. Format: in vivo. The note with it: for reduction of infarct volume: 48 h. As to the method:
Newborn Wistar rats (dam plus 9 pups per litter) were obtained from Janvier (Le Genest-St-Isle, France) when the pups were 3-4 days of age. The pups were housed with their dam under a 12:12 h light-dark cycle with food and water freely available. Animal experimentation was conducted according to the French and European Community guidelines for the care and use of experimental animals. Rat pups were anesthetized with an intraperitoneal injection of chloral hydrate (350 mg/kg). Ischemia was performed in 7 day-old rats (17-21 g), as previously described (Renolleau et al., 1998). Anesthetized rats were positioned on their back and a median incision was made in the neck to expose the left common carotid artery. Rats were then placed on the right side and an oblique skin incision was made between the ear and the eye. After excision of the temporal muscle, the cranial bone was removed from the frontal suture to a level below the zygomatic arch. […] After this procedure, a clip was placed to occlude the left common carotid artery. Rats were then placed in an incubator to avoid hypothermia. After 50 min, the clip was removed. Carotid blood flow restoration was verified with the aid of a microscope. Neck and cranial skin incisions were then closed. During the surgical procedure, body temperature was maintained at 37-38° C. Pups were transferred in an incubator (32° C.) until recovery then after to their dams.
Compound was administered intraperitoneally or intraveinously at 1 h after ischemia (corresponding to the reperfusion). Control animals received an equivalent volume of vehicle required to solubilize the pentapeptidic caspase inhibitor. Rats were killed 48 hours after reperfusion and brains were removed. The infarct lesion (pale zone) was visually scored by an observer blinded to the treatment of animals. Brains without a clear ischemic pale zone were observed under a magnifying glass.
Sections from anterior striatum to posterior hippocampus (corresponding to plates 9 to 27 in Paxinos' rat brain atlas) were selected, taken at equally spaced 0.5-mm intervals. The lesion areas were measured on cresyl violet-stained sections using an image analyzer, and the distances between respective coronal sections were used to calculate the infarct volume.

The subject of assay [3] is global cerebral ischemia, hippocampus CA1 cell death. Briefly: Global cerebral ischemia by four-vessel occlusion (4VO) in young-adult rats. Format: in vivo, rat. The note with it: single i.c.v. 60 ng, 72 h post-ischemia. As to the method: Global cerebral ischemia was induced by four-vessel occlusion (4V0) according a Pulsinelli's derived method (Pulsinelli and Buchman, 1988) in young-adult rats (males Wistar aged of 10-12 weeks, 320 g+/−10 g; Janvier). The first day, head of anesthetised rats was positionned in stereotaxic ear bars and tilted down at approximatively 30° to the horizontal. After a midline incision at the level of cervical spine, both vertebral arteries were exposed under microscope and then coagulated by electocautery needle through the alar foramina at the level of first cervical vertebra. Both common carotides were then exposed 24 h later and clamped for 20-30 min (rats fell in the coma when electrocautherisation of both vertebral arteries have been well performed). Carotid arteries were then declamped to allow blood flow reperfusion. Vehicle and SEQ8 were administrated at the level of the left cerebral ventricule in the first fifth minutes of ischemia (carotides occlusion). Rats were let in their cage with waer et food ad libitum.
The selective loss of vulnerable cells and SEQ8's effects have been evaluated at 72 h. Rats were sacrificed and brain fixed by trans-cardiac perfusion with paraformaldehyde. Frontal brain slices (25 μm) were strained by Cresyl-Violet or co-stained by Hoechst 33342 and Fluorojade B to assess cell death in the hippocampus and in the cortex. […] Fluoro JadeB (green fluorescence) intake is possible only in cells which have permeable plasma membrane, thus more characteristic of dying cells. Hoechst 33342 (blue fluorescence) label nuclei all cells and allows to appreciate nuclear morphology changes during cell death. Cells are counted in three successive slices at such levels in the hippocampus (CA1) in the left brain hemisphere. […] Both Fluoro Jade B and Hoechst stained slices were observed under a Leica DMIRB inverted fluorescence microscope equipped with ×40 objective and LEICA IM1000/Qfluorobase software (BP 340-80 excitation filter combined with LP 425 emission filter for Hoechst; BP 480/40 excitation filter combined with BP 515-560 emission filter for Fluoro Jade B).

Turning to `CC(=O)N[C@@H](CC(C)C)C(=O)N[C@@H](CC(=O)O)C(=O)N[C@@H](CCC(=O)O)C(=O)NCC(=O)N[C@H](C=O)CC(=O)O` [Compound 26, Ac-LDEGD(SEQ ID NO:2)-cho] (Ac-LDEGD-aldehyde), the “Group (pattern of caspase-2 inhibition curve)” value in assay [1] was determined as 3.

On to `CC(=O)N[C@@H](CC(C)C)C(=O)N[C@@H](CC(=O)O)C(=O)N[C@@H](CCC(=O)O)C(=O)N[C@@H](CO)C(=O)N[C@H](C=O)CC(=O)O` [Compound 1, Ac-LDESD-cho, reference compound] (Ac-LDESD-aldehyde), for which, in assay [1], the “Group (pattern of caspase-2 inhibition curve)” value was 2/3 and the half-maximal inhibitory concentration (IC50) was 300 ± 20 nM.

Turning to `CC(=O)N[C@@H](Cc1ccccc1)C(=O)N[C@@H](CC(=O)O)C(=O)N[C@@H](CCC(=O)O)C(=O)N[C@@H](CO)C(=O)N[C@H](C=O)CC(=O)O` [Compound 3, Ac-FDESD(SEQ ID NO:6)-cho] (Ac-FDESD-aldehyde), the “Group (pattern of caspase-2 inhibition curve)” value in assay [1] is 3.

`CC(=O)N[C@H](C(=O)N[C@@H](CC(=O)O)C(=O)N[C@@H](CCC(=O)O)C(=O)N[C@@H](CO)C(=O)N[C@H](C=O)CC(=O)O)C(C)C` [Compound 7, Ac-VDESD(SEQ ID NO:4)-cho] (Ac-VDESD-aldehyde): the “Group (pattern of caspase-2 inhibition curve)” value in assay [1] is listed as 3.

Regarding `CC(=O)N[C@@H](CC(C)C)C(=O)N[C@@H](CC(=O)O)C(=O)N[C@@H](CCC(=O)O)C(=O)N[C@@H](CCCCN)C(=O)N[C@H](C=O)CC(=O)O` [Compound 27, Ac-LDEKD(SEQ ID NO:5)-cho] (Ac-LDEKD-aldehyde), in assay [1], the “Group (pattern of caspase-2 inhibition curve)” value turned out to be 3 and the IC50 was determined as 300 ± 5 nM.

For the molecule “Z-VDVAD(SEQ ID NO:9)-FMK ({code Z}-VDVAD-CH2F; reading uncertain) [reference compound]”, the “VDVAD-AMC cleavage by caspase-2” value in assay [1] is recorded as “blocked”.

In the case of “z-LEHD-fmk ({code Z}-LEHD-CH2F; reading uncertain; also: printed as z-LEHD-fmk) [reference compound]”, the “VDVAD-AMC cleavage by caspase-2” value in assay [1] is on record as “not”.

As to “2-Quinolinylcarbonyl-L-Valinyl-L-Aspartyl (methyl ester)-L-Vanilyl-L-Alaninyl-L-Aspartyl (methyl ester) 2,6-difluorophenyl ester [SEQ8]”, the “VDVAD-AMC cleavage by caspase-2” value in assay [1] is reported as “blocked”. Also, the “animals with partially or very marked reduced infarct” value in assay [2] (1 mg/kg i.v. (FIG. 18) 1 h post-ischemia) is listed as ~50%. The “animals with partially or very marked reduced infarct” value in assay [2] (0.1 or 1 mg/kg i.p. 1 h post-ischemia) was “more than 50%”. In assay [2] (single dose 1 mg/kg i.v. (FIG. 18) 1 h post-ischemia), the “reduction of infarct volume” value is “at least 30%”. Besides, the “reduction of infarct volume” value in assay [2] (single dose 0.1 or 1 mg/kg i.p. 1 h post-ischemia) is 44-53%. Moreover, in assay [3], the “Cresyl-violet staining intensity” value was “partially restored”, the “abnormal nuclei in CA1” value is given as “less abnormal nuclei” and the “cells incorporating Fluorojade B in CA1” value is 10-20%.
